The values that follow come from US8367659B2, “Oxazinyl isoflavonoid compounds, medicaments and use” (Marshall Edwards, Inc., priority 2007, dated 2013).

Molecules are shown by their SMILES. Read-outs that look alike come from different tables or passages of the source.

The experiment relates to Rabbit kidney (RK-13) cells. Briefly: Toxicity to normal cells, rabbit kidney (RK-13) cells. The experiment is classed as cell-based. To be noted: Oryctolagus cuniculus. The protocol:
IC50 values were determined for each cell line. Cells were seeded in 96-well plates at an appropriate cell density as determined from growth kinetics analysis and cultured for 5 days in the absence and presence of the test compounds. Cell proliferation was assessed after the addition of 20 μl of 3-4,5 dimethylthiazol-2,5-diphenyl tetrazolium bromide (MTT, 2.5 mg/ml in PBS, Sigma) for 3-4 hrs at 37° C. according to manufacturer's instructions. IC50 values were calculated from semi-log plots of % of control proliferation on the y-axis against log dose on the x-axis.
The neonatal foreskin fibroblasts (NFF) were a gift from Dr. Peter Parsons (Queensland Institute of Medical Research). Rabbit kidney (RK-13) cells were obtained from Miller Whalley (Macquarie University). Both cell lines were cultured in RPMI supplemented with 10% FCS(CSL, Australia), penicillin (100 U/ml), streptomycin ([…]), L-glutamine (2 mM) and sodium bicarbonate (1.2 g/L), and cultured at 37° C. in a humidified atmosphere of 5% CO2. IC50 values were determined as described above.

By IC50 is commonly meant the concentration at which inhibition is half-maximal. For `CC(c1ccccc1)N1COc2cc3c(cc2C1)C=C(c1ccc(O)cc1)CO3` (centres unmarked) [Compound 2, 4-(3-(1-Phenylethyl)-2,3,4,8-tetrahydrochromeno[6,7-e][1,3]oxazin-7-yl)phenol], the IC50 by setting is: (normal, non-transformed cells, read-out: IC50 μM, RK Rabbit Kidney) 53.3 µM; (read-out: toxicity to RK-13 cells (IC50)) more than 30 µM.
